According to BigSolDB 2.1:

N#CCc1ccccc1[N+](=O)[O-]
Conditions	solubility (mole fraction)
in 1,4-dioxane, 288.15 K	0.216
in 1,4-dioxane, 293.15 K	0.226
in 1,4-dioxane, 298.15 K	0.241
in 1,4-dioxane, 303.15 K	0.257
in 1,4-dioxane, 308.15 K	0.278
in 1,4-dioxane, 313.15 K	0.303
in 1,4-dioxane, 318.15 K	0.334
in 1,4-dioxane, 323.15 K	0.371
in 1,4-dioxane, 328.15 K	0.414
in 1,4-dioxane, 333.15 K	0.469
in 2-butanone, 278.15 K	0.108
in 2-butanone, 283.15 K	0.128
in 2-butanone, 288.15 K	0.151
in 2-butanone, 293.15 K	0.173
in 2-butanone, 298.15 K	0.197
in 2-butanone, 303.15 K	0.235
in 2-butanone, 308.15 K	0.269
in 2-butanone, 313.15 K	0.312
in 2-butanone, 318.15 K	0.357
in 2-butanone, 323.15 K	0.422
in 2-butanone, 328.15 K	0.475
in 2-butanone, 333.15 K	0.543
in acetic acid, 293.15 K	0.0478
in acetic acid, 298.15 K	0.0574
in acetic acid, 303.15 K	0.0694
in acetic acid, 308.15 K	0.0846
in acetic acid, 313.15 K	0.104
in acetic acid, 318.15 K	0.128
in acetic acid, 323.15 K	0.158
in acetic acid, 328.15 K	0.196
in acetic acid, 333.15 K	0.244
in acetone, 278.15 K	0.13
in acetone, 283.15 K	0.147
in acetone, 288.15 K	0.171
in acetone, 293.15 K	0.194
in acetone, 298.15 K	0.227
in acetone, 303.15 K	0.259
in acetone, 308.15 K	0.295
in acetone, 313.15 K	0.342
in acetone, 318.15 K	0.385
in acetone, 323.15 K	0.439
in acetone, 328.15 K	0.506
in acetonitrile, 278.15 K	0.0932
in acetonitrile, 283.15 K	0.107
in acetonitrile, 288.15 K	0.124
in acetonitrile, 293.15 K	0.143
in acetonitrile, 298.15 K	0.168
in acetonitrile, 303.15 K	0.195
in acetonitrile, 308.15 K	0.228
in acetonitrile, 313.15 K	0.264
in acetonitrile, 318.15 K	0.31
in acetonitrile, 323.15 K	0.362
in acetonitrile, 328.15 K	0.424
in acetonitrile, 333.15 K	0.498
in ethanol, 278.15 K	0.00458
in ethanol, 283.15 K	0.00566
in ethanol, 288.15 K	0.00705
in ethanol, 293.15 K	0.00939
in ethanol, 298.15 K	0.0118
in ethanol, 303.15 K	0.0156
in ethanol, 308.15 K	0.0213
in ethanol, 313.15 K	0.0277
in ethanol, 318.15 K	0.0383
in ethanol, 323.15 K	0.0487
in ethanol, 328.15 K	0.0649
in ethanol, 333.15 K	0.0838
in ethyl acetate, 278.15 K	0.13
in ethyl acetate, 283.15 K	0.142
in ethyl acetate, 288.15 K	0.16
in ethyl acetate, 293.15 K	0.177
in ethyl acetate, 298.15 K	0.199
in ethyl acetate, 303.15 K	0.219
in ethyl acetate, 308.15 K	0.246
in ethyl acetate, 313.15 K	0.278
in ethyl acetate, 318.15 K	0.313
in ethyl acetate, 323.15 K	0.357
in ethyl acetate, 328.15 K	0.407
in ethyl acetate, 333.15 K	0.466
in ethylbenzene, 278.15 K	0.0237
in ethylbenzene, 283.15 K	0.0285
in ethylbenzene, 288.15 K	0.0346
in ethylbenzene, 293.15 K	0.0423
in ethylbenzene, 298.15 K	0.052
in ethylbenzene, 303.15 K	0.0644
in ethylbenzene, 308.15 K	0.0803
in ethylbenzene, 313.15 K	0.101
in ethylbenzene, 318.15 K	0.126
in ethylbenzene, 323.15 K	0.16
in ethylbenzene, 328.15 K	0.204
in ethylbenzene, 333.15 K	0.26
in isobutanol, 278.15 K	0.00332
in isobutanol, 283.15 K	0.00416
in isobutanol, 288.15 K	0.00491
in isobutanol, 293.15 K	0.00639
in isobutanol, 298.15 K	0.00803
in isobutanol, 303.15 K	0.0102
in isobutanol, 308.15 K	0.013
in isobutanol, 313.15 K	0.0171
in isobutanol, 318.15 K	0.0228
in isobutanol, 323.15 K	0.0303
in isobutanol, 328.15 K	0.0404
in isobutanol, 333.15 K	0.0546
in isopropanol, 278.15 K	0.00411
in isopropanol, 283.15 K	0.00484
in isopropanol, 288.15 K	0.00579
in isopropanol, 293.15 K	0.00751
in isopropanol, 298.15 K	0.00982
in isopropanol, 303.15 K	0.0132
in isopropanol, 308.15 K	0.0177
in isopropanol, 313.15 K	0.0228
in isopropanol, 318.15 K	0.03
in isopropanol, 323.15 K	0.0384
in isopropanol, 328.15 K	0.0492
in isopropanol, 333.15 K	0.0627
in methanol, 278.15 K	0.00641
in methanol, 283.15 K	0.00842
in methanol, 288.15 K	0.0105
in methanol, 293.15 K	0.0131
in methanol, 298.15 K	0.0174
in methanol, 303.15 K	0.0235
in methanol, 308.15 K	0.0305
in methanol, 313.15 K	0.0395
in methanol, 318.15 K	0.0514
in methanol, 323.15 K	0.0661
in methanol, 328.15 K	0.0842
in methanol, 333.15 K	0.108
in n-butanol, 278.15 K	0.00351
in n-butanol, 283.15 K	0.00437
in n-butanol, 288.15 K	0.00569
in n-butanol, 293.15 K	0.00731
in n-butanol, 298.15 K	0.00969
in n-butanol, 303.15 K	0.0129
in n-butanol, 308.15 K	0.0175
in n-butanol, 313.15 K	0.0223
in n-butanol, 318.15 K	0.0293
in n-butanol, 323.15 K	0.0383
in n-butanol, 328.15 K	0.0491
in n-butanol, 333.15 K	0.0624
in n-propanol, 278.15 K	0.00412
in n-propanol, 283.15 K	0.00553
in n-propanol, 288.15 K	0.00681
in n-propanol, 293.15 K	0.00917
in n-propanol, 298.15 K	0.0115
in n-propanol, 303.15 K	0.0151
in n-propanol, 308.15 K	0.0196
in n-propanol, 313.15 K	0.0254
in n-propanol, 318.15 K	0.0333
in n-propanol, 323.15 K	0.0426
in n-propanol, 328.15 K	0.0544
in n-propanol, 333.15 K	0.0685
in toluene, 278.15 K	0.0293
in toluene, 283.15 K	0.0371
in toluene, 288.15 K	0.0471
in toluene, 293.15 K	0.0613
in toluene, 298.15 K	0.0738
in toluene, 303.15 K	0.0968
in toluene, 308.15 K	0.123
in toluene, 313.15 K	0.153
in toluene, 318.15 K	0.195
in toluene, 323.15 K	0.241
in toluene, 328.15 K	0.303
in toluene, 333.15 K	0.377
in water, 278.15 K	3.75e-05
in water, 283.15 K	4.65e-05
in water, 288.15 K	5.57e-05
in water, 293.15 K	6.69e-05
in water, 298.15 K	8.19e-05
in water, 303.15 K	0.000102
in water, 308.15 K	0.000125
in water, 313.15 K	0.000153
in water, 318.15 K	0.000186
in water, 323.15 K	0.000225
in water, 328.15 K	0.000274
in water, 333.15 K	0.000333
